Test results: ChEMBL document CHEMBL1201862, “PubChem BioAssay data set” (2004)
Activity calls are given as the source filed them.

Assays:
[1] = molecular target: T1, Apoptotic protease-activating factor 1 (Homo sapiens, UniProt O14727); assay type: functional
T1 sequence (O14727 whole entry): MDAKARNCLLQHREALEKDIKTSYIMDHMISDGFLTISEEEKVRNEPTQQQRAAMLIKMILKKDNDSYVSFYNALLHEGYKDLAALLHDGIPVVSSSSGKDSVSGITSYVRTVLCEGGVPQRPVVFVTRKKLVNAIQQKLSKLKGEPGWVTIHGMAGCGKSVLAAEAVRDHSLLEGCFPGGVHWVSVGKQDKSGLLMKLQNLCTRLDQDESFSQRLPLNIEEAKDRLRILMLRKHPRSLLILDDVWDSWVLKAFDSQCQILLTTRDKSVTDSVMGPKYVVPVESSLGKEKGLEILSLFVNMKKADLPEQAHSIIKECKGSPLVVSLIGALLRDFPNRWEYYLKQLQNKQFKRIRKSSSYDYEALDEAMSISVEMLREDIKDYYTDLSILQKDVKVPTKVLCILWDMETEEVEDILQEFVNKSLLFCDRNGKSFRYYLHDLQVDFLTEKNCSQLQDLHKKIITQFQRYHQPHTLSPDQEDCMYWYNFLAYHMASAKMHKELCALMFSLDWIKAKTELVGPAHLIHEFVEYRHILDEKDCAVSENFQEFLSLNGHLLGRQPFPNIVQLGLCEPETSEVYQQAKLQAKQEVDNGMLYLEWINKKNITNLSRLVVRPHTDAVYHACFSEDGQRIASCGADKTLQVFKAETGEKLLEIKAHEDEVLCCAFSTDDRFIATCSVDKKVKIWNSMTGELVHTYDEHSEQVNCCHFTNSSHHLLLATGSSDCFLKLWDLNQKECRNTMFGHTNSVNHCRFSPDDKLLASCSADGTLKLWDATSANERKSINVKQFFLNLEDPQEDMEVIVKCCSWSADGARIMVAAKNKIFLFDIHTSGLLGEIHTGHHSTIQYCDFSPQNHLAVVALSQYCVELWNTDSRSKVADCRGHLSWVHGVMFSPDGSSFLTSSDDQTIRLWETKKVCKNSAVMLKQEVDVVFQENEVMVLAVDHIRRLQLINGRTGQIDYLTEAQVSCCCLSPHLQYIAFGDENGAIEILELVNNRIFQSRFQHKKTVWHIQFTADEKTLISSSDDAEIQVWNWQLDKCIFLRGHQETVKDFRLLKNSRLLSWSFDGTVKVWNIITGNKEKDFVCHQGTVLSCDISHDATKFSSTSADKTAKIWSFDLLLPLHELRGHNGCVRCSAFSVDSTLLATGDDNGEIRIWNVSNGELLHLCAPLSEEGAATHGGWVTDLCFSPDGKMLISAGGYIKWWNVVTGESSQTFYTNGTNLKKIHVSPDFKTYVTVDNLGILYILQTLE

[2] = molecular target: T2, Short transient receptor potential channel 4 (Mus musculus, UniProt Q9QUQ5); assay: block of DAMGO-driven TRPC4 calcium entry – cell-based, HEK293 TRPC4/mu-opioid, Fluo-4 calcium, dose response (AID 434942); assay type: functional;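 further: potency of inhibitors blocking the TRPC4 calcium response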
T2 sequence (Q9QUQ5 whole entry): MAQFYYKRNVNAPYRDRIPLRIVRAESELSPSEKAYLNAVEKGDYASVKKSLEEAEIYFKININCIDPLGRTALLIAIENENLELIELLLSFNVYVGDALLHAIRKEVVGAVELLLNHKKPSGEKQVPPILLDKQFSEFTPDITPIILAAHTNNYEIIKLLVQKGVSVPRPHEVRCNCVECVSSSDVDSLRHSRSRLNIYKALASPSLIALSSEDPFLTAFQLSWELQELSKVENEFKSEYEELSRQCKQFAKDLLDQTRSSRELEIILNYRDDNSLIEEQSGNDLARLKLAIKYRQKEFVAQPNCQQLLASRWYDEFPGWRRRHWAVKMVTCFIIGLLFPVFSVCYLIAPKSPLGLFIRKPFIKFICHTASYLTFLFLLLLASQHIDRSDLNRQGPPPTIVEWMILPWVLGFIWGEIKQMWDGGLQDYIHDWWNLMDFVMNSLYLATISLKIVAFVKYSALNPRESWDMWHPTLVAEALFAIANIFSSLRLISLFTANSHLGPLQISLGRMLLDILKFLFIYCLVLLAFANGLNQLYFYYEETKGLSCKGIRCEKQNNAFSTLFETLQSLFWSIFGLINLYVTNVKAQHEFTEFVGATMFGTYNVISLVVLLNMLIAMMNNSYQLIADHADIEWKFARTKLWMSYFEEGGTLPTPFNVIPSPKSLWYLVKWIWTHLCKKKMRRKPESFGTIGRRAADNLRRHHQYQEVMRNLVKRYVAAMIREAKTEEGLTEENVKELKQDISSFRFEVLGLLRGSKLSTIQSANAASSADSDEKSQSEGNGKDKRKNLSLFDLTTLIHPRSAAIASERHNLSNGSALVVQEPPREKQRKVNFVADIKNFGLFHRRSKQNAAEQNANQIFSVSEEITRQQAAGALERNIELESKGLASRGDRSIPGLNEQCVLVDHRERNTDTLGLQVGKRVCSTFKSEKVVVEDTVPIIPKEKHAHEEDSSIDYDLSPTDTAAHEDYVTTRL

SMILES	IC50 [1]	EC50 [2]
COc1ccc(CNC(=O)c2c(C)oc3c2C(=O)c2ccccc2C3=O)cc1	23.1 µM (active)	
CC(C)c1ccc(S(=O)(=O)/N=C2\C=C(NS(=O)(=O)c3ccccc3)C(=O)c3ccccc32)cc1		7.5 µM (active)
